Data set [1] concerns the target T1, AChE (Homo sapiens, UniProt P22303). Nature of the data set: Anticholinesterase activity, modified colorimetric Ellman method. The format is biochemical. The conditions noted are these: for inhibition at 100 µM / inhibition at 1000 µM: read-out: AChE % inhibition; for Selectivity and indexes: selective for AChE (over BChE). For orientation: DTNB colorimetry detects thiols as they appear.

Data set [2] concerns the target BChE (Homo sapiens, UniProt P06276). The data set is described as above. The format is biochemical. The note with it: for inhibition at 100 µM / inhibition at 1000 µM: read-out: BChE % inhibition.
Data set [3] has as its target T2, hMAO A (Homo sapiens, UniProt P21397).
T2 sequence (P21397 1-527): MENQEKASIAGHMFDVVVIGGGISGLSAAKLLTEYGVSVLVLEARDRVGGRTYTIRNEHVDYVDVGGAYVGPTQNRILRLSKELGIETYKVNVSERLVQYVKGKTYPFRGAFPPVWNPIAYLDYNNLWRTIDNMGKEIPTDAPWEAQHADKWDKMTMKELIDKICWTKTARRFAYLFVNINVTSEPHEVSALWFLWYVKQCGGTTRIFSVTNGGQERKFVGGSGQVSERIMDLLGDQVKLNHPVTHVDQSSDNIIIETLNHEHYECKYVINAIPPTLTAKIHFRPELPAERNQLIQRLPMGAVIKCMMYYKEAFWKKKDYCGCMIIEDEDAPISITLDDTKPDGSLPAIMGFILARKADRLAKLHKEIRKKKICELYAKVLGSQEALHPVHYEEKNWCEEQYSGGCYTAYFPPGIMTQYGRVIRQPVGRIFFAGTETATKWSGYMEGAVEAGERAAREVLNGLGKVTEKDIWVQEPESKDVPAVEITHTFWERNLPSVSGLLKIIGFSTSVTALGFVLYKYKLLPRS
Nature of the data set: MAO A inhibition, fluorometric method. The class given is biochemical. The note with it: for inhibition at 100 µM / inhibition at 1000 µM: read-out: MAO A % inhibition.

The target in data set [4] is T3, recombinant hMAO B (Homo sapiens, UniProt P27338).
T3 sequence (P27338 1-520): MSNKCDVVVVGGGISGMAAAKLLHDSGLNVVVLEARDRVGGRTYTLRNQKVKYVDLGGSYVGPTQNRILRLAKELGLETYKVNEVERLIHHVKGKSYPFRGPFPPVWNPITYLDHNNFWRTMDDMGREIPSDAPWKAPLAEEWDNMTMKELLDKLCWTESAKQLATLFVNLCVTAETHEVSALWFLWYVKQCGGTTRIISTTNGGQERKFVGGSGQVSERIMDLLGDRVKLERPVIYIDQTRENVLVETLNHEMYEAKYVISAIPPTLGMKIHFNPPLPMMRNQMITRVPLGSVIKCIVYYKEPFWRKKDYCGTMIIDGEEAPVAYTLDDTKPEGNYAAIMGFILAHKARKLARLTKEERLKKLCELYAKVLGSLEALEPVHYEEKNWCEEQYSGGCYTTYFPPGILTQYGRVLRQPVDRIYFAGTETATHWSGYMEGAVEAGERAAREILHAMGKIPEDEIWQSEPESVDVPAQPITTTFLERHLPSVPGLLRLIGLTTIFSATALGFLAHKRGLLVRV
Nature of the data set: MAO B inhibition, fluorometric method. The class given is biochemical. The note with it: for inhibition at 100 µM / inhibition at 1000 µM: read-out: MAO B % inhibition.

In data set [5] the target is T1, AChE. Nature of the data set: Kinetic studies of AChE enzyme inhibition. The format is biochemical. The conditions noted are these: Lineweaver-Burk plot.
In data set [6] the test system is NIH/3T3 cell lines. Nature of the data set: Cytotoxicity, 24-hour MTT assay. The format is cell-based. The note with it: for IC50: Mus musculus, NIH3T3, 24 h, read-out: IC50 against NIH/3T3. Background: Formazan colour is commonly taken as a measure of viable cells.

The results in this text go back to publication PMC12560751 (RSC Advances, 2025).

Some results are limits rather than exact numbers.

Sequence of BChE (P06276 29-602, species assumed): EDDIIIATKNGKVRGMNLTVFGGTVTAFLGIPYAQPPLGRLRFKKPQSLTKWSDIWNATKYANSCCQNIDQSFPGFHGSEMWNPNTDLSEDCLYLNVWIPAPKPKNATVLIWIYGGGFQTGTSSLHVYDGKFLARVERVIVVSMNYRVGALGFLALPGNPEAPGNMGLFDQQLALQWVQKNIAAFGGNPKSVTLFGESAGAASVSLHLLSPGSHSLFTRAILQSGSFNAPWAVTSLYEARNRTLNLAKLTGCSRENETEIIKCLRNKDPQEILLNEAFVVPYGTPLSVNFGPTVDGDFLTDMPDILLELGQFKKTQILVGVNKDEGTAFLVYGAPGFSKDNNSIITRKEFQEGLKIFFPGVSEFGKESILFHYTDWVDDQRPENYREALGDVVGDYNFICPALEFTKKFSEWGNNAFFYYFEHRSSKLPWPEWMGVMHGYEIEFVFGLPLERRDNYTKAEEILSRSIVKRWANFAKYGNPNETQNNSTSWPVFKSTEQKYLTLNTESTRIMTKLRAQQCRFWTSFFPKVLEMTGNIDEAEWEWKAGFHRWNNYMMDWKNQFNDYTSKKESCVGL
T1 sequence (P22303 32-614): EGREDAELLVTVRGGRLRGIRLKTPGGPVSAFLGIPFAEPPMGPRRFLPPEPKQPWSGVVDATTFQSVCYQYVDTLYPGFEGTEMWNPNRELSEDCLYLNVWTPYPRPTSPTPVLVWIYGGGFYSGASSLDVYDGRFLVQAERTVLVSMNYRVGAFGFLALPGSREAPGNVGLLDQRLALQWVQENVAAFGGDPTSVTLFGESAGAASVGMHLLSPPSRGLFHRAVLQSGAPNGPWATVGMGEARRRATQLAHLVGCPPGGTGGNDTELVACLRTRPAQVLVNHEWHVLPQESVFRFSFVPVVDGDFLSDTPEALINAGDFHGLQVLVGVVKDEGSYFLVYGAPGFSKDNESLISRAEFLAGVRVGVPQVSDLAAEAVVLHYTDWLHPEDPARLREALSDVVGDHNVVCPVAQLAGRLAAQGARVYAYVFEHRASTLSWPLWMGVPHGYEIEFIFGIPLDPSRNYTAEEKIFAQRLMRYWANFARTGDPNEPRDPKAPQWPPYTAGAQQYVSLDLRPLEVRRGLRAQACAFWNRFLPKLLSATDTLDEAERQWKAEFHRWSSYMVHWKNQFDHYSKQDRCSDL

One may read the inhibition as the drop in the measured response relative to a control, in per cent. As for `COc1ccc(C(=O)C=Cc2ccc(NC(=O)CN3CCN(C(C)=O)CC3)cc2)cc1OC` [Compound 4g, 2-(4-Acetylpiperazin-1-yl)-N-(4-(3-(3,4-dimethoxyphenyl)-3-oxoprop-1-en-1-yl)phenyl)acetamide], the IC50 is 0.027 ± 0.001 µM in data set [1]; greater than 1000 µM in data set [2]; greater than 100 µM in data set [3]; 0.114 ± 0.003 µM in data set [4] (MAO B IC50, tables); less than 1 µM in data set [4] (MAO B IC50, text); 32.2 µM in data set [6]. In addition, the inhibition at 100 µM in data set [1] came to 96.4 ± 2.5%; in data set [2] it was 29.9 ± 0.92%; in data set [3], 39.4 ± 1.11%; in data set [4] it was 89.2 ± 2.17%. Further, the inhibition at 1000 µM is 98 ± 2.56% in data set [1], 36.4 ± 0.954% in data set [2], 69 ± 2.52% in data set [3] and 92.3 ± 2.16% in data set [4]. The Selectivity and indexes entry in data set [1] is reported as “AChE/>1000”. In addition, the type of inhibition entry in data set [5] was “reversible and mixed-type inhibitor”. Moreover, the “cytotoxicity (in words)” value in data set [6] (NIH/3T3, MTT) is listed as “not cytotoxic”.
In the case of `COc1ccc(C(=O)C=Cc2ccc(NC(=O)CN3CCN(CCCN(C)C)CC3)cc2)cc1OC` [Compound 4k, N-(4-(3-(3,4-Dimethoxyphenyl)-3-oxoprop-1-en-1-yl)phenyl)-2-(4-(3-(dimethylamino)propyl)piperazin-1-yl)acetamide], the IC50 in data set [1] was 0.039 ± 0.001 µM; in data set [2] it was greater than 1000 µM; in data set [3] it was greater than 100 µM; in data set [4] (MAO B IC50, tables), greater than 1000 µM. In addition, the inhibition at 100 µM turned out to be 94.1 ± 2.96% in data set [1], 29 ± 1.04% in data set [2], 41.3 ± 1.94% in data set [3] and 36.1 ± 0.964% in data set [4]. Also, the inhibition at 1000 µM in data set [1] amounted to 97.4 ± 2.81%; in data set [2], 46 ± 1.87%; in data set [3], 63 ± 2.86%; in data set [4], 48.7 ± 1.84%. The Selectivity and indexes result is given as “AChE/>1000” in data set [1] and “MAO-A/>10” in data set [3] (selective for MAO-A (over MAO B)).
For the compound `COc1ccc(C(=O)C=Cc2ccc(NC(=O)CN3CCN(C4CCCC4)CC3)cc2)cc1OC` [Compound 4l, 2-(4-Cyclopentylpiperazin-1-yl)-N-(4-(3-(3,4-dimethoxyphenyl)-3-oxoprop-1-en-1-yl)phenyl)acetamide], the IC50 was greater than 100 µM in data set [1]; greater than 1000 µM in data set [2]; greater than 1000 µM in data set [3]; greater than 1000 µM in data set [4] (MAO B IC50, tables). Further, the inhibition at 100 µM is 40.3 ± 1.82% in data set [1], 32.7 ± 1.35% in data set [2], 30.4 ± 1.25% in data set [3] and 29.7 ± 0.841% in data set [4]. The inhibition at 1000 µM in data set [1] was 76.9 ± 2.36%; in data set [2], 41 ± 2%; in data set [3], 36.7 ± 0.984%; in data set [4], 46.7 ± 1.15%.
On to `COc1ccc(C(=O)C=Cc2ccc(NC(=O)CN3CCN(S(C)(=O)=O)CC3)cc2)cc1OC` [Compound 4m, N-(4-(3-(3,4-Dimethoxyphenyl)-3-oxoprop-1-en-1-yl)phenyl)-2-(4-(methylsulfonyl)piperazin-1-yl)acetamide], for which the IC50 in data set [1] is 0.158 ± 0.006 µM; in data set [2] it was greater than 1000 µM; in data set [3] it was greater than 1000 µM; in data set [4] (MAO B IC50, tables) it was greater than 100 µM. Further, the inhibition at 100 µM in data set [1] came out at 87.6 ± 1.72%; in data set [2], 33.3 ± 1.22%; in data set [3] it was 33.6 ± 1.32%; in data set [4] it was 29 ± 0.826%. For the same compound, the inhibition at 1000 µM in data set [1] was determined as 89.4 ± 2.59%; in data set [2], 37.3 ± 0.961%; in data set [3], 39.4 ± 1.37%; in data set [4] it was 58 ± 1.63%. The Selectivity and indexes entry in data set [1] is on record as “AChE/>1000”; in data set [4] (selective for MAO-B (over MAO A)), “MAO-B/>10”.
Turning to `COc1cccc2c1C(=O)c1c(O)c3c(c(O)c1C2=O)C[C@@](O)(C(=O)CO)C[C@@H]3O[C@H]1C[C@H](N)[C@H](O)[C@H](C)O1` [Doxorubicin, reference compound], the IC50 in data set [6] is greater than 1000 µM.
